{
  "source": "patent US20060276523A1",
  "about": "(priority 2003, published 2006)",
  "key": {"[1]": {"test_system": "isolated rabbit thoracic aorta preparations", "assay": "Studies on vascular tone: vasorelaxation of noradrenaline-precontracted aortic rings", "assay_type": "cell-based", "conditions": "rabbit aortic rings precontracted with noradrenaline 1 μM; for IC50: functional endothelium, read-out: IC50 (μM) ± sem (vasorelaxation)", "protocol": "The ability of the nitroderivatives of ARB to induce vasorelaxation in comparison to native ARB, was tested in vitro in isolated rabbit thoracic aorta preparations (Wanstall J. C. et al., Br. J. Pharmacol., 134:463-472, 2001). Male New Zealand rabbits were anaesthetized with thiopental-Na (50 mg/kg, iv), sacrificed by exsanguinations and then the thorax was opened and the aorta dissected. Aortic ring preparations (4 mm in length) were set up in physiological salt solution (PSS) at 37° C. in small organ chambers (5 ml). The composition of PSS was (mM): NaCl 130, NaHCO3 14.9, KH2PO4 1.2, MgSO4 1.2, HEPES 10, CaCl2, ascorbic acid […] and glucose 1.1 (95% O2/5% CO2; pH 7.4). Each ring was mounted under 2 g passive tension. Isometric tension was recorded with a Grass transducer (Grass FT03) attached to a BIOPAC MP150 System. Preparations were allowed to equilibrate for 1 h, and then contracted submaximally with noradrenaline (NA, 1 μM) and, when the contraction was stable, acetylcholine (ACh, 10 μM) was added. A relaxant response to ACh indicated the presence of a functional endothelium. […] When a stable precontraction was reached, a cumulative concentration-response curve to either of the vasorelaxant agents was obtained in the presence of a functional endothelium. Each arterial ring was exposed to only one combination of inhibitor and vasorelaxant. Moreover, the effect of the soluble guanylyl cyclase inhibitor ODQ (1-H-(1,2,4)-oxadiazol(4,3-a)quinoxalin-1-one) on vasorelaxation elicited by the compounds was examined preincubating the aortic rings with ODQ (10 μM) for 20 min.\nResponses to relaxing agents are expressed as a percentage of residual contraction and plotted against concentration of test compound. IC50 values (where IC50 is the concentration producing 50% of the maximum relaxation to the test compound) were interpolated from these plots.\nDuring the experimental period, the plateau obtained with NA was stable without significant spontaneous loss of contraction in the aortic rings."}, "[2]": {"test_system": "human platelets", "assay": "Antiplatelet activity: U46619-induced platelet aggregation in platelet rich plasma (Born method)", "assay_type": "cell-based", "conditions": "2 min, human PRP, aggregating agent U46619, incubation 2 min at 37° C., read-out: Platelet aggregation (PRP) (incubation time: 2 min) IC50", "protocol": "Aggregating agent used was U46619, a TxA2 analog, based on the evidence that this agonist is sensitive to the effects of nitric oxide. Compounds were incubated at 37° C. for 2 min before adding the aggregating agent. Aggregation was followed for 5 min and the maximal amplitude (cm) was measured. DMSO (0.05% final concentration) was used as vehicle. Compounds were tested at concentrations ranging from 10 to 100 μM."}, "[3]": {"test_system": "spontaneously hypertensive rats (SHRs)", "assay": "Antihypertensive activity in conscious spontaneously hypertensive rats (telemetry)", "assay_type": "in vivo", "conditions": "SHR; for Systolic blood pressure (mmHg), 30 min: 30 min after dosing; for Systolic blood pressure (mmHg), 30 min / Systolic blood pressure (mmHg), 12 hrs / Systolic blood pressure (mmHg), 24 hrs: losartan 10 mg/kg po, EX. 2 12 mg/kg po (equimolar); for Systolic blood pressure (mmHg), 12 hrs: 12 hrs after dosing; for Systolic blood pressure (mmHg), 24 hrs: 24 hrs after dosing; for Systolic blood pressure (mmHg), Baseline: groups losartan 10 mg/kg po, EX. 2 12 mg/kg po", "excerpt": "Systolic blood pressure (SBP) and heart rate were monitored by telemetry at different time points after dosing."}, "[4]": {"test_system": "RAW 264.7 macrophages", "assay": "Inhibition of LPS-induced nitrite accumulation (Griess reaction)", "assay_type": "cell-based", "conditions": "for Nitrite (% vs vehicle): 25 μM, LPS 1 μg/ml for 16 hrs, RAW 264.7", "protocol": "The experiments were performed using RAW 264.7 monocyte macrophage cell line. Cells were stimulated in the presence of lipopolysaccharide (LPS) (1 μg/ml) for 16 hrs. At the end of the incubation, the culture media were collected and analyzed for nitrite content using a standard Griess reaction.\nThe results reported in Table 2 are expressed as % of nitrite content for each treatment vs. LPS-treated samples."}},
  "note": "Where two headings read alike, the source gives them in different places.",
  "data": [
    {"smiles": "CCCCc1nc(Cl)c(COC(=O)c2ccc(CO[N+](=O)[O-])cc2)n1Cc1ccc(-c2ccccc2-c2nn[nH]n2)cc1", "note": "[EX. 1, 2-butyl-4-chloro-1-[[2′-(1H-tetrazol-5-yl)[1,1′-biphenyl]-4-yl]methyl]-1H-imidazole-5-methanol 4-(nitrooxymethyl) benzoic acid ester]", "values": [
      {"measurement": "IC50", "setting": "[1]; Oryctolagus cuniculus", "value": "33 ± 12", "unit": "µM"},
      {"measurement": "IC50", "setting": "[2]", "value": 5, "unit": "µM"}
    ]},
    {"smiles": "CCCCc1nc(Cl)c(COC(=O)CCCO[N+](=O)[O-])n1Cc1ccc(-c2ccccc2-c2nn[nH]n2)cc1", "note": "[EX. 2, 2-butyl-4-chloro-1-[[2′-(1H-tetrazol-5-yl)[1,1′-biphenyl]-4-yl]methyl]-1H-imidazole-5-methanol 4-nitrooxybutanoic acid ester]", "values": [
      {"measurement": "IC50", "setting": "[1]; Oryctolagus cuniculus", "value": "15 ± 3", "unit": "µM"},
      {"measurement": "Systolic blood pressure (mmHg), 30 min", "setting": "[3]; daily oral dose for 3 days", "value": 115, "unit": "mmHg"},
      {"measurement": "Systolic blood pressure (mmHg), 12 hrs", "setting": "[3]; daily oral dose for 3 days", "value": 126, "unit": "mmHg"},
      {"measurement": "Systolic blood pressure (mmHg), 24 hrs", "setting": "[3]; daily oral dose for 3 days", "value": 128, "unit": "mmHg"},
      {"measurement": "Systolic blood pressure (mmHg), Baseline", "setting": "[3]", "value": 143, "unit": "mmHg"},
      {"measurement": "reduction in blood pressure levels over the treatment period (in words)", "setting": "[3]; daily oral dose for 3 days", "value": "able to induce a clear reduction in blood pressure levels"},
      {"measurement": "IC50", "setting": "[2]", "value": 11, "unit": "µM"}
    ]},
    {"smiles": "CCCCc1nc(Cl)c(COC(=O)c2cccc(CO[N+](=O)[O-])c2)n1Cc1ccc(-c2ccccc2-c2nn[nH]n2)cc1", "note": "[EX. 4, 2-butyl-4-chloro-1-[[2′-(1H-tetrazol-5-yl)[1,1′-biphenyl]-4-yl]methyl]-1H-imidazole-5-methanol 3-(nitrooxymethyl) benzoic acid ester]", "values": [
      {"measurement": "IC50", "setting": "[1]; Oryctolagus cuniculus", "value": "54 ± 16", "unit": "µM"},
      {"measurement": "Nitrite (% vs vehicle)", "setting": "[4]", "value": "61 ± 3", "unit": "% vs vehicle"},
      {"measurement": "inhibition of accumulation of nitrites induced by LPS (in words)", "setting": "[4]; RAW 264.7, LPS", "value": "able to inhibit the accumulation of nitrites induced by LPS"}
    ]},
    {"smiles": "CCCCc1nc(Cl)c(COC(=O)CCCCCO[N+](=O)[O-])n1Cc1ccc(-c2ccccc2-c2nnn[nH]2)cc1", "note": "[EX. 5, 2-butyl-4-chloro-1-[[2′-(H-tetrazol-5-yl)[1,1′-biphenyl]-4-yl]methyl]-1H-imidazole-5-methanol 6-nitrooxyhexanoic acid ester]", "values": [
      {"measurement": "IC50", "setting": "[1]", "value": "18 ± 6", "unit": "µM"}
    ]},
    {"smiles": "CCCCc1nc(Cl)c(CO)n1Cc1ccc(-c2ccccc2-c2nn[nH]n2)cc1", "note": "[Losartan, reference compound]", "values": [
      {"measurement": "IC50", "setting": "[1]; Oryctolagus cuniculus", "value": "> 100", "unit": "µM"},
      {"measurement": "relaxation of aortic rings (in words)", "setting": "[1]", "value": "did not produce relaxation at any of the concentration tested"},
      {"measurement": "Nitrite (% vs vehicle)", "setting": "[4]", "value": "99 ± 9", "unit": "% vs vehicle"},
      {"measurement": "Systolic blood pressure (mmHg), 30 min", "setting": "[3]; daily oral dose for 3 days", "value": 133, "unit": "mmHg"},
      {"measurement": "Systolic blood pressure (mmHg), 12 hrs", "setting": "[3]; daily oral dose for 3 days", "value": 135, "unit": "mmHg"},
      {"measurement": "Systolic blood pressure (mmHg), 24 hrs", "setting": "[3]; daily oral dose for 3 days", "value": 136, "unit": "mmHg"},
      {"measurement": "Systolic blood pressure (mmHg), Baseline", "setting": "[3]", "value": 143, "unit": "mmHg"}
    ]}
  ]
}
